Our source for the T/C values is PubChem BioAssay AID256 (DTP/NCI, 2004).

Several values for one entry are separate records, joined by “and”; a condition that tells them apart may be missing. Equal entries are not always repeated. Toxic doses and inconclusive results are not listed.

The assay deals with CD2F1 mice, L1210 leukemia ip, survival T/C. Nature of the assay: NCI In Vivo Anticancer Drug Screen. Data for tumor model L1210 Leukemia (intraperitoneal) in CD2F1 (CDF1) mice. The settings on record: higher = longer survival. Summed up:
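Activity against a transplanted murine tumor was judged by comparing the compound group with a vehicle group. The outcome in the treated animals was divided by that in the controls.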

Where [1] appears, read: endpoint: mean survival time, dose: 25.0 mg/kg/injection, schedule: Q01DX009 (ip), vehicle: saline with Tween-80.
Where [2] appears, read: endpoint: mean survival time, dose: 25.0 mg/kg/injection, schedule: Q04DX003 (ip), vehicle: saline with Tween-80.
Where [3] appears, read: endpoint: mean survival time, dose: 50.0 mg/kg/injection, schedule: Q01DX009 (ip), vehicle: saline with Tween-80.
The mark [4] stands for this setting: endpoint: mean survival time, dose: 50.0 mg/kg/injection, schedule: Q04DX003 (ip), vehicle: saline with Tween-80.
Where [5] appears, read: endpoint: mean survival time, dose: 100.0 mg/kg/injection, schedule: Q04DX003 (ip), vehicle: saline with Tween-80.
The mark [6] stands for this setting: endpoint: mean survival time, dose: 100.0 mg/kg/injection, schedule: Q01DX001 (ip), vehicle: saline.
Setting [7] is: endpoint: mean survival time, dose: 200.0 mg/kg/injection, schedule: Q01DX001 (ip), vehicle: saline.
Where [8] appears, read: endpoint: mean survival time, dose: 400.0 mg/kg/injection, schedule: Q01DX001 (ip), vehicle: saline.
[9] abbreviates: endpoint: mean survival time, dose: 10.0 mg/kg/injection, schedule: Q04DX003 (ip), vehicle: Klucel (hydroxypropylcellulose) (HPC).
[10] abbreviates: endpoint: mean survival time, dose: 20.0 mg/kg/injection, schedule: Q04DX003 (ip), vehicle: Klucel (hydroxypropylcellulose) (HPC).
The mark [11] stands for this setting: endpoint: mean survival time, dose: 40.0 mg/kg/injection, schedule: Q04DX003 (ip), vehicle: Klucel (hydroxypropylcellulose) (HPC).
The mark [12] stands for this setting: endpoint: mean survival time, dose: 100.0 mg/kg/injection, schedule: Q04DX002 (ip), vehicle: saline with Tween-80.
Where [13] appears, read: endpoint: mean survival time, dose: 200.0 mg/kg/injection, schedule: Q01DX009 (ip), vehicle: saline with Tween-80.
The mark [14] stands for this setting: endpoint: mean survival time, dose: 400.0 mg/kg/injection, schedule: Q01DX009 (ip), vehicle: saline with Tween-80.

Turning to `Nc1ncnc2c1ncn2CCCl`, the T/C by setting is: under setting [1], 102 % of control; under setting [2], 103 % of control; under setting [3], 101 % of control; under setting [4], 96 % of control; under setting [5], 97 % of control.
Take `O=C1NC(c2ccccc2Cl)Nc2ccccc21` (centres undefined): the T/C (endpoint: mean survival time, dose: 50.0 mg/kg/injection, schedule: Q01DX009 (ip), vehicle: Klucel (hydroxypropylcellulose) (HPC)) was 91 % of control; the T/C (endpoint: mean survival time, dose: 100.0 mg/kg/injection, schedule: Q01DX009 (ip), vehicle: Klucel (hydroxypropylcellulose) (HPC)) is 107 % of control; the T/C (endpoint: mean survival time, dose: 200.0 mg/kg/injection, schedule: Q01DX009 (ip), vehicle: Klucel (hydroxypropylcellulose) (HPC)) was 93 % of control; the T/C (endpoint: mean survival time, dose: 400.0 mg/kg/injection, schedule: Q01DX009 (ip), vehicle: Klucel (hydroxypropylcellulose) (HPC)) was 93 % of control.
Regarding `CCOC(=S)SCCCC(C)CC` (centres undefined), the T/C runs as follows: under setting [6], 100 % of control; under setting [7], 102 % of control; under setting [8], 102 % of control.
Turning to `CC1=NC(C#N)=C(C#N)N=C(C)C1`, the T/C under setting [9] was 102 % of control, the T/C under setting [10] is 98 % of control and the T/C under setting [11] was 106 % of control.
Turning to `C1CC[N-]CC1.C1CC[N-]CC1.C1CC[N-]CC1.C1CC[N-]CC1.N#C[S-].N#C[S-].[Ni]`, the T/C by setting is: under setting [9], 90 % of control; under setting [10], 91 % of control; under setting [11], 96 % of control.
Turning to `O=CO.[Cu+2]`, the T/C is 90 % of control (endpoint: mean survival time, dose: 5.0 mg/kg/injection, schedule: Q01DX001 (ip), vehicle: saline) and 98 % of control (endpoint: mean survival time, dose: 10.0 mg/kg/injection, schedule: Q01DX001 (ip), vehicle: saline).
Consider `O=[N+]([O-])C(Br)(CO)CO`, for which the T/C (endpoint: mean survival time, dose: 4.7 mg/kg/injection, schedule: Q01DX009 (ip), vehicle: saline) is 101 % of control; the T/C (endpoint: mean survival time, dose: 4.7 mg/kg/injection, schedule: Q04DX003 (ip), vehicle: saline) was 98 % of control; the T/C (endpoint: mean survival time, dose: 9.4 mg/kg/injection, schedule: Q01DX009 (ip), vehicle: saline) was 101 % of control; the T/C (endpoint: mean survival time, dose: 9.4 mg/kg/injection, schedule: Q04DX003 (ip), vehicle: saline) was 96 % of control; the T/C (endpoint: mean survival time, dose: 18.8 mg/kg/injection, schedule: Q01DX001 (ip), vehicle: saline) is 102 % of control; the T/C (endpoint: mean survival time, dose: 18.8 mg/kg/injection, schedule: Q01DX009 (ip), vehicle: saline) was 95 % of control. For the same compound, the T/C (endpoint: mean survival time, dose: 18.8 mg/kg/injection, schedule: Q04DX003 (ip), vehicle: saline) was 105 % of control.
As to `COc1ccc(N(C)c2ccc(C(=C3C=CC(=[N+](C)CCO)C=C3)c3ccc(N(C)CCO)cc3)cc2)cc1`, the T/C by setting is: (endpoint: mean survival time, dose: 6.25 mg/kg/injection, schedule: Q04DX002 (ip), vehicle: saline with Tween-80) 108 % of control; (endpoint: mean survival time, dose: 25.0 mg/kg/injection, schedule: Q04DX002 (ip), vehicle: saline with Tween-80) 108 % of control.
Turning to `Cc1c(C)c(C)c(CN2CCC(C)CC2)c(C)c1C`, the T/C reads like this: under setting [1], 90 % of control; under setting [3], 91 % of control; under setting [12], 98 % of control; under setting [13], 90 % of control; (endpoint: mean survival time, dose: 200.0 mg/kg/injection, schedule: Q04DX002 (ip), vehicle: saline with Tween-80) 94 % of control; under setting [14], 86 % of control. Moreover, the T/C (endpoint: mean survival time, dose: 400.0 mg/kg/injection, schedule: Q04DX002 (ip), vehicle: saline with Tween-80) was 94 % of control.
As for `CC12OCCN1CC(COc1ccccc1)O2` (centres undefined), the T/C is, setting by setting: under setting [5], 104 % of control; (endpoint: mean survival time, dose: 200.0 mg/kg/injection, schedule: Q04DX003 (ip), vehicle: saline with Tween-80) 98 % of control; (endpoint: mean survival time, dose: 400.0 mg/kg/injection, schedule: Q04DX003 (ip), vehicle: saline with Tween-80) 110 % of control.
As for `COc1ccccc1-n1c(C)nc2c(cnn2C2OC(CO)C(O)C2O)c1=O` (centres undefined), the T/C was 107 % of control (endpoint: mean survival time, dose: 12.5 mg/kg/injection, schedule: Q01DX005 (ip), vehicle: saline); 101 % of control (endpoint: mean survival time, dose: 25.0 mg/kg/injection, schedule: Q01DX005 (ip), vehicle: saline); 101 % of control (endpoint: mean survival time, dose: 50.0 mg/kg/injection, schedule: Q01DX005 (ip), vehicle: saline); 98 % of control (endpoint: mean survival time, dose: 100.0 mg/kg/injection, schedule: Q01DX005 (ip), vehicle: saline); 101 % of control (endpoint: mean survival time, dose: 200.0 mg/kg/injection, schedule: Q01DX005 (ip), vehicle: saline).
For `CCNC(=S)Nc1ccc(Cl)cc1`, the T/C by setting is: under setting [2], 104 % of control; under setting [4], 101 % of control; under setting [5], 91 % of control.
In the case of `O=[N+]([O-])c1cccc(Cc2nncc3ccccc23)c1`, the T/C was 96 % of control (endpoint: mean survival time, dose: 100.0 mg/kg/injection, schedule: Q01DX009 (ip), vehicle: saline with Tween-80); 94 % of control under setting [13]; 94 % of control under setting [14].
With `N#CC1(O)CCCCC1`, the T/C runs as follows: (endpoint: mean survival time, dose: 2.5 mg/kg/injection, schedule: Q01DX009 (ip), vehicle: saline with Tween-80) 102 % of control; (endpoint: mean survival time, dose: 5.0 mg/kg/injection, schedule: Q01DX009 (ip), vehicle: saline with Tween-80) 104 % of control; (endpoint: mean survival time, dose: 5.0 mg/kg/injection, schedule: Q04DX003 (ip), vehicle: saline with Tween-80) 102 % of control; (endpoint: mean survival time, dose: 10.0 mg/kg/injection, schedule: Q01DX009 (ip), vehicle: saline with Tween-80) 94 % of control; (endpoint: mean survival time, dose: 10.0 mg/kg/injection, schedule: Q04DX003 (ip), vehicle: saline with Tween-80) 102 % of control.
For `CC(C/C=N/N1CCCCC1)Nc1ccnc2cc(Cl)ccc12` (centres undefined), the T/C by setting is: (endpoint: mean survival time, dose: 0.78 mg/kg/injection, schedule: Q01DX009 (ip), vehicle: saline with Tween-80) 95 % of control; (endpoint: mean survival time, dose: 1.56 mg/kg/injection, schedule: Q01DX009 (ip), vehicle: saline with Tween-80) 101 % of control; (endpoint: mean survival time, dose: 3.13 mg/kg/injection, schedule: Q01DX009 (ip), vehicle: saline with Tween-80) 102 % of control.
On to `Cc1cc(NCCCCCCNc2cc(C)nc3cc(N(C)C)ccc23)c2ccc(N(C)C)cc2n1`, for which the T/C is 121 % of control (endpoint: median survival time, dose: 3.12 mg/kg/injection, schedule: Q01DX009 (ip), vehicle: distilled water + Tween-80 + alcohol); 152 % of control and 158 % of control (endpoint: median survival time, dose: 25.0 mg/kg/injection, schedule: Q01DX009 (ip), vehicle: distilled water + Tween-80 + alcohol).
With `CC1C=CC(=O)O1` (centres undefined), the T/C runs as follows: (endpoint: mean survival time, dose: 50.0 mg/kg/injection, schedule: Q04DX002 (ip), vehicle: saline with Tween-80) 100 % of control; under setting [12], 103 % of control.
As to `CCCCCCCCNC(=O)CC`, the T/C reads like this: under setting [6], 103 % of control; (endpoint: mean survival time, dose: 100.0 mg/kg/injection, schedule: Q01DX009 (ip), vehicle: saline) 94 % of control; (endpoint: mean survival time, dose: 100.0 mg/kg/injection, schedule: Q04DX003 (ip), vehicle: saline) 97 % of control; under setting [7], 100 % of control; (endpoint: mean survival time, dose: 200.0 mg/kg/injection, schedule: Q01DX009 (ip), vehicle: saline) 94 % of control; (endpoint: mean survival time, dose: 200.0 mg/kg/injection, schedule: Q04DX003 (ip), vehicle: saline) 101 % of control. The T/C under setting [8] was 100 % of control; the T/C (endpoint: mean survival time, dose: 400.0 mg/kg/injection, schedule: Q01DX009 (ip), vehicle: saline) was 92 % of control; the T/C (endpoint: mean survival time, dose: 400.0 mg/kg/injection, schedule: Q04DX003 (ip), vehicle: saline) is 98 % of control.
For `CCOC(=O)CNc1nc(Cl)nc(NCC(=O)OCC)n1`, the T/C was 87 % of control (endpoint: mean survival time, dose: 100.0 mg/kg/injection, schedule: Q01DX001 (ip), vehicle: saline with Tween-80); 89 % of control (endpoint: mean survival time, dose: 200.0 mg/kg/injection, schedule: Q01DX001 (ip), vehicle: saline with Tween-80); 91 % of control (endpoint: mean survival time, dose: 400.0 mg/kg/injection, schedule: Q01DX001 (ip), vehicle: saline with Tween-80).
